According to patent US5216005A, “Immunosuppressive analogues and derivatives of succinylacetone” (priority 1990, dated 1993):

Columns and labels:
[1] = test system: IL-2 (human lymphoid cells); test: IL-2 production in primary mixed lymphocyte reaction (HT-2 cell assay); assay type: cell-based; set-up: IL-2: unit not given here; details: for IL-2: 1° MLR
Method: Derivatives of succinylacetone were tested for immunosuppressive activity in several different types of assay systems. The first consisted of measuring the amounts of interleukin-2 (IL-2), and interferon-γ (IFN-γ) produced by human lymphoid cells in a mixed lymphocyte reaction. Low levels of these molecules in the reaction mixture indicate that the immune system is being suppressed by the subject succinylacetone derivatives. IL-2 was measured by enumerating the number of viable HT-2 cells found after an 18-24 hours period. HT-2 cells are a mouse IL-2 dependent cell line which die in the absence of IL-2. The assay is described by Gillis et al., J. of Immunol. […] The mixed lymphocyte reaction assay can be carried out by techniques well known to those skilled in the art. L. Hudson and F. C. Huy, Practical Immunology, p. […] Briefly this consists of isolating lymphocytes from human peripheral blood by standard density gradient centrifugation techniques from two separate individuals. Approximately 2×10^5 lymphocytes of each individual are combined to yield a total of 4×10^5 lymphocytes per culture. All procedures are carried out under sterile conditions, and the lymphocytes are isolated and kept in physiologically compatible solutions. To the mixture of lymphocytes is added a desired amount of an appropriate succinylacetone derivative, and after different times an aliquot of the mixture is removed and assayed for IL-2 or IFN-γ, or ^[…] is measured.

[2] = test system: adjuvant induced arthritis; test: adjuvant induced arthritis in rats, overall arthritis score; intraarticular right paw, per kg: succinylacetone 325 μg, methyl ester 150 μg, 4-acetyl-5-oxohexanoate 560 μg; assay type: in vivo, rat
human lymphoid cells = test: tritiated thymidine uptake in secondary mixed lymphocyte reaction; assay type: cell-based; details: 2°-MLR; for inhibition at 740 µM / inhibition at 2200 µM / inhibition at 6700 µM / inhibition at 20000 µM: Homo sapiens, Lymphocyte
Method: In addition to testing the immunosuppressive activities of succinylacetone derivatives in a primary mixed lymphocyte reaction, or a phytohemagglutinin stimulation assay, two of the derivatives, succinylacetone methyl ester and methyl 4-acetyl-5-oxohexanoate, were tested in a secondary mixed lymphocyte reaction assay. The secondary mixed lymphocyte assays differs from the primary mixed lymphocyte reaction assays in that they employ many more primed responder cells that are responsive to the primary stimulating cells. The presence of such responsive cells is a reflection of immunological memory in an ongoing immunological response. […] These cells are then used in the secondary mixed lymphocyte reaction. It is worth noting that because a secondary mixed lymphocyte reaction is greatly enriched for responsive cells, fewer cells can be used in the secondary assay.
It will be appreciated that described therein is a method for carrying out secondary lymphocyte reactions using mouse cells, however such methods are generally applicable to performing secondary mixed lymphocyte reactions using human cells with modifications that are well known to those skilled in the art. […] The assays were conducted in duplicate involving lymphoid cells isolated from two individuals.

human lymphocytes = test: tritiated thymidine uptake in primary mixed lymphocyte reaction; assay type: cell-based; details: for incorporation of tritiated thymidine: Table IV
From the text: The in vitro mixed lymphocyte assay described below is presently employed in the clinical setting as an indicator of histocompatibility, and is premised on the transformation of resting genetically dissimilar lymphocytes into cells which synthesize DNA and undergo proliferation.
The mixed lymphocyte reaction assay can be carried out by techniques well known to those skilled in the art. L. Hudson and F. C. Huy, Practical Immunology, p. 260, Blackwell Scientific Publications (1976). Briefly this consists of isolating lymphocytes from human peripheral blood by standard density gradient centrifugation techniques from two separate individuals. Approximately 2×10^5 lymphocytes of each individual are combined to yield a total of 4×10^5 lymphocytes per culture. All procedures are carried out under sterile conditions, and the lymphocytes are isolated and kept in physiologically compatible solutions. To the mixture of lymphocytes is added a desired amount of an appropriate succinylacetone derivative, and after different times an aliquot of the mixture is removed and assayed for IL-2 or IFN-γ, or ^3 H-T is measured.
As mentioned above, one measure of an immune response as reflected in a mixed lymphocyte assay is the stimulation of DNA synthesis, and a concomitant increase in cell number. Thus, to further ascertain the immunosuppressive activity of succinylacetonyl-proline-NH-PEG, its effect on inhibition of thymocyte growth, as detected by uptake of tritiated thymidine, was assayed.

COC(=O)CCC(C(C)=O)C(C)=O [Methyl 4-Acetyl-5-Oxohexanoate, methyl 4-acetyl-5-oxohexanoate]
IL-2 ([1]; Exp I, 3 μM): 29 | IL-2 ([1]; Exp I, 9 μM): 46 | IL-2 ([1]; Exp I, 27 μM): 30 | IL-2 ([1]; Exp I, 81 μM): 42 | IL-2 ([1]; Exp I, 244 μM): 17 | IL-2 ([1]; Exp I, 733 μM): 17 | IL-2 ([1]; Exp I, 2.2 mM): 9 | IL-2 ([1]; Exp I, 6.7 mM): < 6 | IL-2 ([1]; Exp I, 20 mM): < 6 | IL-2 ([1]; Exp II, 3 μM): 70 | IL-2 ([1]; Exp II, 9 μM): 85 | IL-2 ([1]; Exp II, 27 μM): 52 | IL-2 ([1]; Exp II, 81 μM): 70 | IL-2 ([1]; Exp II, 244 μM): 52 | IL-2 ([1]; Exp II, 733 μM): 70 | IL-2 ([1]; Exp II, 2.2 mM): 35 | IL-2 ([1]; Exp II, 6.7 mM): < 12 | IL-2 ([1]; Exp II, 20 mM): < 12 | IC50 ([1]; Homo sapiens, HT2, primary MLR, read-out: concentration causing 50% reduction in IL-2 production): ~2200 µM | overall arthritis score ([2]; Exp. I (treated from same day), day 14): 3.2 ± 2.2 | overall arthritis score ([2]; Exp. I (treated from same day), day 16): 3.4 ± 2.2 | overall arthritis score ([2]; Exp. I (treated from same day), day 18): 5.0 ± 3.2 | overall arthritis score ([2]; Exp. I (treated from same day), day 20): 7.0 ± 4.0 | overall arthritis score ([2]; Exp. I (treated from same day), day 22): 8.2 ± 4.9 | overall arthritis score ([2]; Exp. I (treated from same day), day 24): 7.2 ± 4.2 | overall arthritis score ([2]; Exp. I (treated from same day), day 26): 7.2 ± 4.2 | overall arthritis score ([2]; Exp. II (treated from day 4), day 14): 1.0 ± 1.4 | overall arthritis score ([2]; Exp. II (treated from day 4), day 16): 2.2 ± 2.5 | overall arthritis score ([2]; Exp. II (treated from day 4), day 18): 1.8 ± 1.8 | overall arthritis score ([2]; Exp. II (treated from day 4), day 20): 2.2 ± 2.0 | overall arthritis score ([2]; Exp. II (treated from day 4), day 22): 5.0 ± 3.5 | overall arthritis score ([2]; Exp. II (treated from day 4), day 24): 3.4 ± 3.6 | overall arthritis score ([2]; Exp. II (treated from day 4), day 26): 4.0 ± 3.7 | overall arthritis score ([2]; Exp. III (treated from day 14), day 14): 2.0 ± 2.0 | overall arthritis score ([2]; Exp. III (treated from day 14), day 16): 2.4 ± 1.5 | overall arthritis score ([2]; Exp. III (treated from day 14), day 18): 3.4 ± 2.6 | overall arthritis score ([2]; Exp. III (treated from day 14), day 20): 5.6 ± 2.7 | overall arthritis score ([2]; Exp. III (treated from day 14), day 22): 7.4 ± 4.8 | overall arthritis score ([2]; Exp. III (treated from day 14), day 24): 7.4 ± 5.3 | overall arthritis score ([2]; Exp. III (treated from day 14), day 26): 7.4 ± 5.3 | effect on arthritis ([2]; comparison of treatment schedules, in words): apparently most active when administered every other day from day 4 to day 24 | CPM (human lymphoid cells; Exp I, 247 μM): 73805 CPM | CPM (human lymphoid cells; Exp I, 740 μM): 61568 CPM | CPM (human lymphoid cells; Exp I, 2.2 mM): 1995 CPM | CPM (human lymphoid cells; Exp I, 6.7 mM): 112 CPM | CPM (human lymphoid cells; Exp I, 20 mM): 76 CPM | CPM (human lymphoid cells; Exp II, 247 μM): 86893 CPM | CPM (human lymphoid cells; Exp II, 740 μM): 88958 CPM | CPM (human lymphoid cells; Exp II, 2.2 mM): 43264 CPM | CPM (human lymphoid cells; Exp II, 6.7 mM): 4402 CPM | CPM (human lymphoid cells; Exp II, 20 mM): 134 CPM | inhibition at 740 µM (human lymphoid cells; Exp I, 740 μM): 23.6% | inhibition at 2200 µM (human lymphoid cells; Exp I, 2.2 mM): 97.5% | inhibition at 6700 µM (human lymphoid cells; Exp I, 6.7 mM): 9.99% | inhibition at 20000 µM (human lymphoid cells; Exp I, 20 mM): 9.99% | inhibition at 740 µM (human lymphoid cells; Exp II, 740 μM): 4.8% | inhibition at 2200 µM (human lymphoid cells; Exp II, 2.2 mM): 53.7% | inhibition at 6700 µM (human lymphoid cells; Exp II, 6.7 mM): 95.3% | inhibition at 20000 µM (human lymphoid cells; Exp II, 20 mM): 9.99% | IC50 (human lymphocytes; Homo sapiens, Lymphocyte, primary MLR, read-out: concentration causing 50% inhibition in thymidine uptake): ~2200 µM | incorporation of tritiated thymidine (human lymphocytes; Exp I, 3 μM): 74259 | incorporation of tritiated thymidine (human lymphocytes; Exp I, 9 μM): 77627 | incorporation of tritiated thymidine (human lymphocytes; Exp I, 27 μM): 77634 | incorporation of tritiated thymidine (human lymphocytes; Exp I, 81 μM): 81881 | incorporation of tritiated thymidine (human lymphocytes; Exp I, 244 μM): 48284 | incorporation of tritiated thymidine (human lymphocytes; Exp I, 733 μM): 67787 | incorporation of tritiated thymidine (human lymphocytes; Exp I, 2.2 mM): 29389 | incorporation of tritiated thymidine (human lymphocytes; Exp I, 6.7 mM): 135 | incorporation of tritiated thymidine (human lymphocytes; Exp I, 20 mM): 163 | incorporation of tritiated thymidine (human lymphocytes; Exp II, 3 μM): 114713 | incorporation of tritiated thymidine (human lymphocytes; Exp II, 9 μM): 117109 | incorporation of tritiated thymidine (human lymphocytes; Exp II, 27 μM): 112463 | incorporation of tritiated thymidine (human lymphocytes; Exp II, 81 μM): 113054 | incorporation of tritiated thymidine (human lymphocytes; Exp II, 244 μM): 122672 | incorporation of tritiated thymidine (human lymphocytes; Exp II, 733 μM): 113732 | incorporation of tritiated thymidine (human lymphocytes; Exp II, 2.2 mM): 84363 | incorporation of tritiated thymidine (human lymphocytes; Exp II, 6.7 mM): 21280 | incorporation of tritiated thymidine (human lymphocytes; Exp II, 20 mM): 109
